In one assay the target is BRD4 protein (Homo sapiens (Human), UniProt O60885). Put plainly: BRD4 protein degradation inducing action in LNCaP cells (immunofluorescence, 6 hr). It counts as cell-based. To be noted: anti-BRD4 fluorescence intensity. As to the method:
The degradation inducing action of the compound of the present invention on BRD4 proteins in cancer cells was evaluated in vitro using human prostate cancer LNCaP cells. LNCaP cells were suspended in 10% FBS/RPMI1640, seeded in a 96 well Cell carrier plate (Perkin Elmer) and cultured at 5% CO2, 37° C. overnight. A test compound dissolved in DMSO was diluted with 10% FBS/RPMI1640 and added and the cells were further cultured for 6 hr. After culturing, the cells were immobilized with 4% para-formaldehyde/PBS and further subjected to a permeation treatment with 0.25% Triton X-100/PBS. Thereafter, the cells were blocked with 10% BSA/PBS, Anti-BRD4 (Sigma-Aldrich) solution was added and the cells were incubated at 4° C. overnight. Furthermore, Goat anti-Rabbit IgG(H+L) Cross-Adsorbed Secondary Antibody, Alexa Fluor 546 (Thermo Fisher Scientific) solution, 0.5 μg/mL Hoechst 33342 (Sigma-Aldrich), and 14 μM Acti-Stain 555 Fluorescent Phalloidin (Cytoskeleton) were added. After incubation for 1 hr, BRD4 protein amount was measured by Operetta (Perkin Elmer) as fluorescence intensity (excitation: 560 nm, emission: 572 nm). The BRD4 protein degradation inducing activity of the compound of the present invention in LNCaP cells is shown in DC50 value in Table 3. The DC50 value is a concentration of the compound showing 50% fluorescence intensity when the fluorescence intensity thereof under compound untreated condition is 100%. It was calculated from the straight line connecting the fluorescence intensity at two points enclosing the 50% fluorescence intensity and the compound concentration.

Assay [1] deals with human prostate cancer LNCaP cells. Put plainly: Cytotoxic action on LNCaP cells (WST-8, 96 hr). It counts as cell-based. The settings on record: 96 hr culture. As to the method: The cytotoxic action of the compound of the present invention against human cancer cells was evaluated in vitro. In this experiment, (+)-JQ1 (Nature volume 468, pages 1067-1073 (23 Dec. 2010)) known to have an inhibitory activity on the binding of BRD4 protein and a ligand therefor was used as a positive control drug. Respective cells were suspended in 10% FBS/RPMI1640, seeded in a 96 well plate and cultured at 5% CO2, 37° C. overnight. A test compound dissolved in DMSO was diluted with 10% FBS/RPMI1640 and added and the cells were further cultured for 96 hr. After culturing, the viable cell number was measured using a cell number measurement WST-8 kit (Kishida Chemical Co., Ltd.). As a control, the measurement was performed under conditions free of the test compound. The cytotoxic activity of the compound of the present invention against human prostate cancer LNCaP cells is shown in IC50 value in Table 1. The IC50 value is a concentration of the compound showing 50% cell survival rate when the cell survival rate thereof under compound untreated condition is 100%. It was calculated from the straight line connecting the cell survival rate at two points enclosing the 50% cell survival rate and the compound concentration. In addition, the cytotoxic activity against respective cancer cells of human acute myeloid leukemia MV-4-11 cell, human chronic myeloid leukemia K562 cell, human multiple myeloma MM.1S cell, human diffuse large B-cell lymphoma SU-DHL-6 cell, human T-cell leukemia Jurkat cells, human Burkitt lymphoma Raji cell, human castration-resistant prostate cancer PC-3 cell, human AR-V7 positive castration-resistant prostate cancer 22Rv1 cell, human ovarian cancer A2780 cell, human cisplatin-resistant ovarian cancer SK-OV-03 cell, human bladder cancer 5637 cell, human breast cancer ZR-75-1 cell, human triple negative breast cancer MDA-MB-231 cell, human uterus cervix cancer HeLa cell, human uterine sarcoma MES-SA cell, human stomach cancer SNU-16 cell, human non-small cell lung cancer NCI-H2126 cell, human EGFRT790M mutation-positive non-small cell lung cancer NCI-H1975 cell, human small cell lung cancer NCI-H82 cell, human large cell lung cancer NCI-H460 cell, human colon cancer HCT116 cell, human glioma U-87 MG cell, human pancreatic cancer BxPC-3 cell, human liver cancer HLF cell, human bile duct cancer HuCCT1 cell, human renal cell cancer 786-O cell, and human fibrosarcoma HT1080 cell is shown in IC50 value in Table 2.

With `Cc1sc2c(c1C)C(c1ccc(-c3cc(Cl)c(C(=O)NCc4ccc(S(=O)(=O)Nc5ccc(C)c6c(C#N)c[nH]c56)cc4)cc3F)cc1)=N[C@@H](C)c1nnc(C)n1-2` [Example 71, 5-chloro-N-({4-[(3-cyano-4-methyl-1H-indol-7-yl)sulfamoyl]phenyl}methyl)-2-fluoro-4′-[(6S)-2,3,6,9-tetramethyl-6H-thieno[3,2-f][1,2,4]triazolo[4,3-a][1,4]diazepin-4-yl][1,1′-biphenyl]-4-carboxamide], on BRD4 protein, it took 0.32 nM to reach half-maximal degradation (DC50). In addition, the IC50 in assay [1] came to 0.61 nM.
Consider `CCc1ccc(NS(=O)(=O)c2ccc([C@@H](C)NC(=O)c3ccc(-c4ccc(C5=N[C@@H](CC(=O)OC(C)(C)C)c6nnc(C)n6-c6sc(C)c(C)c65)cc4)cc3)cc2)c2[nH]cc(C#N)c12` [Example Compound 136, t-butyl [(6S)-4-(4′-{[(1R)-1-{4-[(3-cyano-4-ethyl-1H-indol-7-yl)sulfamoyl]phenyl}ethyl]carbamoyl}[1,1′-biphenyl]-4-yl)-2,3,9-trimethyl-6H-thieno[3,2-f][1,2,4]triazolo[4,3-a][1,4]diazepin-6-yl]acetate], for which the DC50 at BRD4 protein was 0.25 nM. Further, in assay [1], the IC50 came out at 0.6 nM.
Consider `COC(=O)C[C@@H]1N=C(c2ccc(-c3ccc(C(=O)N[C@H](C)c4ccc(S(=O)(=O)Nc5ccc(C)c6c(C#N)c[nH]c56)cc4)cc3Cl)cc2)c2c(sc(C)c2C)-n2c(C)nnc21` [Example 84, methyl [(6S)-4-(2′-chloro-4′-{[(1R)-1-{4-[(3-cyano-4-methyl-1H-indol-7-yl)sulfamoyl]phenyl}ethyl]carbamoyl}[1,1′-biphenyl]-4-yl)-2,3,9-trimethyl-6H-thieno[3,2-f][1,2,4]triazolo[4,3-a][1,4]diazepin-6-yl]acetate], for which half-maximal degradation at BRD4 protein (DC50) was put at 0.23 nM. Besides, the IC50 in assay [1] is 0.58 nM.
With `COC(=O)C[C@@H]1N=C(c2ccc(-c3ccc(C(=O)NCCc4ccc(S(=O)(=O)Nc5ccc(C)c6c(C#N)c[nH]c56)cc4)cc3C)cc2)c2c(sc(C)c2C)-n2c(C)nnc21` [Example 89, methyl [(6S)-4-{4′-[(2-{4-[(3-cyano-4-methyl-1H-indol-7-yl)sulfamoyl]phenyl}ethyl)carbamoyl]-2′-methyl [1,1′-biphenyl]-4-yl}-2,3,9-trimethyl-6H-thieno[3,2-f][1,2,4]triazolo[4,3-a][1,4]diazepin-6-yl]acetate], half-maximal degradation on BRD4 protein (DC50) was put at 0.8 nM. For the same molecule, in assay [1], the 50% inhibitory concentration (IC50) was 0.33 nM.
On the same counts, the results for `COC(=O)C[C@@H]1N=C(c2ccc(-c3ccc(C(=O)NCc4ccc(S(=O)(=O)Nc5ccc(C)c6c(C#N)c[nH]c56)cc4C)cc3)cc2)c2c(sc(C)c2C)-n2c(C)nnc21` [Example 94, methyl [(6S)-4-{4′-[({4-[(3-cyano-4-methyl-1H-indol-7-yl)sulfamoyl]-2-methylphenyl}methyl)carbamoyl][1,1′-biphenyl]-4-yl}-2,3,9-trimethyl-6H-thieno[3,2-f][1,2,4]triazolo[4,3-a][1,4]diazepin-6-yl]acetate] are 0.13 nM and 0.42 nM.
On BRD4 protein, `COC(=O)C[C@@H]1N=C(c2ccc(-c3ccc(C(=O)N[C@H](C)c4ccc(S(=O)(=O)Nc5ccc(C)c6c(C#N)c[nH]c56)cc4)cc3C)cc2)c2c(sc(C)c2C)-n2c(C)nnc21` [Example 88, methyl [(6S)-4-(4′-{[(1R)-1-{4-[(3-cyano-4-methyl-1H-indol-7-yl)sulfamoyl]phenyl}ethyl]carbamoyl}-2′-methyl[1,1′-biphenyl]-4-yl)-2,3,9-trimethyl-6H-thieno[3,2-f][1,2,4]triazolo[4,3-a][1,4]diazepin-6-yl]acetate] returned a DC50 of 0.37 nM. Also, in assay [1], 0.17 nM corresponded to half-maximal inhibition (IC50).
On the same counts, the results for `Cc1sc2c(c1C)C(c1ccc(-c3ccc(C(=O)NCc4ccc(S(=O)(=O)Nc5ccc(C)c6c(C#N)c[nH]c56)cc4)cc3)cc1)=N[C@@H](C)c1nnc(C)n1-2` [Example 32, N-({4-[(3-cyano-4-methyl-1H-indol-7-yl)sulfamoyl]phenyl}methyl)-4′-[(6S)-2,3,6,9-tetramethyl-6H-thieno[3,2-f][1,2,4]triazolo[4,3-a][1,4]diazepin-4-yl][1,1′-biphenyl]-4-carboxamide] are 0.42 nM and 0.69 nM.
On BRD4 protein, `CCc1ccc(NS(=O)(=O)c2ccc(CNC(=O)c3ccc(-c4ccc(C5=N[C@@H](CC(=O)OC)c6nnc(C)n6-c6sc(C)c(C)c65)cc4)c(Cl)c3)cc2)c2[nH]cc(C#N)c12` [Example Compound 116, methyl [(6S)-4-{2′-chloro-4′-[({4-[(3-cyano-4-ethyl-1H-indol-7-yl)sulfamoyl]phenyl}methyl)carbamoyl][1,1′-biphenyl]-4-yl}-2,3,9-trimethyl-6H-thieno[3,2-f][1,2,4]triazolo[4,3-a][1,4]diazepin-6-yl]acetate] displayed a DC50 of 0.42 nM. In assay [1], this molecule registered an IC50 of 0.65 nM.
In the same order, the values of `Cc1sc2c(c1C)C(c1ccc(-c3ccc(C(=O)NCc4ccc(S(=O)(=O)Nc5ccc(C)c6c(C#N)c[nH]c56)cc4)cc3)cc1)=N[C@@H](CC(=O)OC(C)(C)C)c1nnc(C)n1-2` [Example 63, t-butyl [(6S)-4-{4′-[({4-[(3-cyano-4-methyl-1H-indol-7-yl)sulfamoyl]phenyl}methyl)carbamoyl][1,1′-biphenyl]-4-yl}-2,3,9-trimethyl-6H-thieno[3,2-f][1,2,4]triazolo[4,3-a][1,4]diazepin-6-yl]acetate] are 0.23 nM and 0.45 nM.
On to `COC(=O)C[C@@H]1N=C(c2ccc(-c3ccc(C(=O)N[C@H](C)c4ccc(S(=O)(=O)Nc5ccc(C)c6c(C#N)c[nH]c56)cc4)cc3F)cc2)c2c(sc(C)c2C)-n2c(C)nnc21` [Example 85, methyl [(6S)-4-(4′-{[(1R)-1-{4-[(3-cyano-4-methyl-1H-indol-7-yl)sulfamoyl]phenyl}ethyl]carbamoyl}-2′-fluoro[1,1′-biphenyl]-4-yl)-2,3,9-trimethyl-6H-thieno[3,2-f][1,2,4]triazolo[4,3-a][1,4]diazepin-6-yl]acetate], for which the half-maximal degradation concentration (DC50) on BRD4 protein was 0.074 nM. Also, inhibition in assay [1] was half-maximal at 0.26 nM (IC50).
The molecule `COC(=O)C[C@@H]1N=C(c2ccc(-c3cnc(C(=O)N[C@H](C)c4ccc(S(=O)(=O)Nc5ccc(C)c6c(C#N)c[nH]c56)cc4)cn3)cc2)c2c(sc(C)c2C)-n2c(C)nnc21` [Example 103, methyl {(6S)-4-[4-(5-{[(1R)-1-{4-[(3-cyano-4-methyl-1H-indol-7-yl)sulfamoyl]phenyl}ethyl]carbamoyl}pyrazin-2-yl)phenyl]-2,3,9-trimethyl-6H-thieno[3,2-f][1,2,4]triazolo[4,3-a][1,4]diazepin-6-yl}acetate] had a 50% degradation concentration (DC50) at BRD4 protein of 0.03 nM. Also, the IC50 in assay [1] is 0.067 nM.
On the same counts, the results for `COC(=O)C[C@@H]1N=C(c2ccc(-c3ccc(C(=O)NCc4ccc(S(=O)(=O)Nc5ccc(C)c6c(C#N)c[nH]c56)cc4)c(Cl)c3)cc2)c2c(sc(C)c2C)-n2c(C)nnc21` [Example 3, methyl [(6S)-4-{3′-chloro-4′-[({4-[(3-cyano-4-methyl-1H-indol-7-yl)sulfamoyl]phenyl}methyl)carbamoyl][1,1′-biphenyl]-4-yl}-2,3,9-trimethyl-6H-thieno[3,2-f][1,2,4]triazolo[4,3-a][1,4]diazepin-6-yl]acetate] are 0.42 nM and 0.092 nM.
